Experimental data taken from article PMC5413018, “Neuropeptide S (NPS) variants modify the signaling and risk effects of NPS Receptor 1 (NPSR1) variants in asthma” (PLoS ONE, 2017).

Columns and labels:
NPSR1-Ile(107) = target: T1, NPSR1-Ile(107) (Homo sapiens, UniProt Q6W5P4, N107I); assay: Real-time RT-PCR of NPSR1 downstream target genes in HEK293 cells, NPSR1-Ile(107); assay type: cell-based; parameters: expressed in transfected cells; host or cells: HEK293
T1 sequence (Q6W5P4 1-371 N107I): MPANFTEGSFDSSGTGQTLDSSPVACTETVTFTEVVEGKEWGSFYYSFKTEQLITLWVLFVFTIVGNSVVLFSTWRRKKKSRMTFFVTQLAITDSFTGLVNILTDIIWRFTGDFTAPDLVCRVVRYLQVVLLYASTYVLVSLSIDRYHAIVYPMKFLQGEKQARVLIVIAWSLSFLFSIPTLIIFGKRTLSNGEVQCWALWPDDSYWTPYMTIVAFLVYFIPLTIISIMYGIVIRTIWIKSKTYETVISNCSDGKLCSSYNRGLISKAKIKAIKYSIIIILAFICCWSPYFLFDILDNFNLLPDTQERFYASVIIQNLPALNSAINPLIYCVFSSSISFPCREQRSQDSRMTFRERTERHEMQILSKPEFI
From the text: The activation of CRE results in transcriptional changes of downstream target genes. To examine whether the observed differences in the promoter activity also affected gene expression, we measured the effects of NPS variants on known NPSR1 downstream target genes. NR4A1 (nuclear receptor subfamily 4, group A, member 1), FOS (FBJ murine osteosarcoma viral oncogene homolog), and chemokine ligands CXCL2 and CCL20 were selected as they were among the most influenced genes after NPS stimulation and their expression also differed between transcriptome comparisons of HEK293 cells expressing either NPSR1-Ile(107) or NPSR1-Asn(107). In the present study, HEK293 cells transiently transfected with either NPSR1-Ile(107) or NPSR1-Asn(107) coding variants were stimulated with 100 nM of either NPS-Val(6) or NPS-Leu(6) for 1, 3, 6, and 24 h, and changes in gene expression were analyzed with RT-PCR.
Fig 2 Real time RT-PCR analysis of NPSR1 downstream target genes. […] GAPDH was used as the endogenous reference, and data are expressed as mean of triplicate samples. […] In all experiments, results were calculated with the comparative Ct method.
Human embryonic kidney cells (HEK293) were cultured in MEM+GlutaMAX-1 medium (Gibco/Invitrogen) supplemented with 10% fetal calf serum (FCS) (Biosera), 1% sodium pyruvate, 1% non-essential amino acids and 1% penicillin/streptomycin (Gibco/Invitrogen). […] The HEK293 cell line was chosen for ligand-receptor studies because it is a well-established model for addressing numerous questions in basic biology and is easy to transfect and amenable of stringent quantitative assessment. […]
The mRNA expression was measured with qRT-PCR using either SYBR Green (for NR4A1, FOS, IER3, and EGR1, the primer sequences are given in S5 Table) or TaqMAN assay (Hs00601975 for CXCL2 Hs00601975, Hs01011368 for CCL20, Hs01036497 for NPSR1 and Pre-Developed TaqMAN Assay Reagents, Part No. 4310884 for GAPDH; Applied Biosystems). […]

chemotaxis = details: cited from earlier work
From the text: (§1) In our cells assays, the magnitude of the mRNA expression of NR4A1 was clearly dependent on the combination of NPS and NPSR1 variants (Fig 2). NR4A1 is expressed in lymphocytes upon stimulation and is anti-inflammatory. NR4A1 has been recently described as a key regulator of catecholamine production by macrophages linking sympathetic stress response and inflammation ...

phagocytosis = details: cited from earlier work
From the text: as §1

[1] = system: serum pro-inflammatory cytokines; details: pigs, central and peripheral administration; cited from earlier work
From the text: as §1

NPSR1 = details: cited from earlier work
From the text: To compare the bioactivities of the two NPS variants, we measured the dose-responses of NPSR1-Ile(107) and NPSR1-Asn(107) coding variants to either wildtype NPS-Val(6) or alternative NPS-Leu(6) in a luciferase assay dependent on the activation of a cAMP-response element (CRE). This assay was used since elevation of the intracellular cAMP levels activates cAMP response element binding protein (CREB) via […]. Activated CREB binds to CRE and induces the expression of downstream target ...

[2] = HEK293 with NPSR1-Ile(107) or NPSR1-Asn(107), 100 nM NPS

downstream signaling in cells expressing NPSR1-Ile(107) vs NPSR1-Asn(107) (in words) (NPSR1-Ile(107); HEK293, 100 nM, compared with cells expressing NPSR1-Asn(107)): stronger downstream signaling
time of mRNA induction of NR4A1, FOS and CXCL2 (NPSR1-Ile(107); [2]): 1 h
time of up-regulation of CCL20 mRNA (NPSR1-Ile(107); [2]): 3 h
Substance: Neuropeptide S (SFRNGVGTGMKKTSFQRAKS; Neuropeptide S; UniProt P0C0P6 70-89, looked up) [NPS, Neuropeptide S, variant not specified at the place]
effects on chemotaxis (in words) (chemotaxis): direct effects
effects on phagocytosis (in words) (phagocytosis): direct effects
levels of serum pro-inflammatory cytokines (in words) [1]: could be activated
cAMP production on NPSR1 activation (in words) (NPSR1): increasing cAMP production
